This is an account of results in US20150342921A1, “METFORMIN-ORLISTAT COMPOSITIONS” (LANDSTEINER SCIENTIFIC S.A. DE C.V., priority 2012, published 2015).

For data set [1] the following is noted: cited from earlier work.
A short description of data set [2]: clinical. Conditions: both, human, in vivo.
From the text: All subjects agreed to participate in the study and were considered as healthy, all as determined through detection tests including medical history, physical examination, electrocardiogram, hematic biometry, blood chemistry with 24 elements, detection of drug abuse, general urine exam as well as hepatitis B and HIV tests. Vital signs were considered normal with blood pressure of 50-90/84-120 mmHg, heart rate of 50-100 pulses/min, breathing rate was 14-25 breaths/min, and tympanic temperature of 36-37.8° C. […] Smokers, pregnant women and subjects with a clinical history of hypersensitivity to drugs, foods or environmental substances were not included.
The prospective and longitudinal study was performed in a crossed and balanced, randomized design with two sequences, two periods, a single dose, single blind with a wash out period of 1 week between treatments. […] After dosing, serial blood samples were collected and vital signs monitored during a period of 24 hours. Blood samples of 10 mL each were extracted at 0, 0.25, 0.5, 0.75, 1, 1.25, 1.5, 1.75, 2, 3, 4, 6, 8, 12 and 24 hours after administration. Vital signs were measured at 0, 1, 2, 3, 4, 6, 8, 12 and 24 hours after dosing. Subjects were held for 36 hours and monitored for safety and adverse effects throughout the study. Volunteers received a diet calculated at 3000 cal/day in each period. […]
For data set [3] the following is noted: after two treatment periods, 26 volunteers, single dose; 7 in total, all light.
From the text: All subjects agreed to participate in the study and were considered as healthy, all as determined through detection tests including medical history, physical examination, electrocardiogram, hematic biometry, blood chemistry with 24 elements, detection of drug abuse, general urine exam as well as hepatitis B and HIV tests. […] Smokers, pregnant women and subjects with a clinical history of hypersensitivity to drugs, foods or environmental substances were not included.
The prospective and longitudinal study was performed in a crossed and balanced, randomized design with two sequences, two periods, a single dose, single blind with a wash out period of 1 week between treatments. […] After dosing, serial blood samples were collected and vital signs monitored during a period of 24 hours. […] Vital signs were measured at 0, 1, 2, 3, 4, 6, 8, 12 and 24 hours after dosing. Subjects were held for 36 hours and monitored for safety and adverse effects throughout the study. Volunteers received a diet calculated at 3000 cal/day in each period.

What is called Cmax is the maximum level reached in the sampled fluid or tissue. For orientation: Tmax means the time at which the peak concentration occurs.

In the case of `CCCCCCCCCCC[C@@H](C[C@@H]1OC(=O)[C@H]1CCCCCC)OC(=O)[C@H](CC(C)C)NC=O` [Orlistat], in data set [1] (in vivo), the “Dietetic fat excreted in feces” value is “up to 30%” and the Excreted in feces was about 97%. For the same compound, the Oral bioavailability result in data set [1] (metformin when fasting, orlistat administered orally) is “below 5%”.

In turn, `CN(C)C(=N)N=C(N)N` [Metformin] yielded a Cmax in data set [2] (500 mg) of 1390 ± 440 ng/mL. For the same compound, the Tmax in data set [2] (po) came out at 2.41 h. Further, the “Excreted with no changes in the urine” value in data set [1] (in vivo) is given as about 90%. The “Number of adverse effects” value in data set [3] was 3.
